Results on 1 molecule are retold here after patent US11786507B2, “Methods of treating HIV-associated neurological disorders (HAND)” (priority 2020, dated 2023).

Molecules are shown by their SMILES. Entries after “also recorded” stand apart in the source; their conditions may differ.

In one assay the test system is α7−/−iTat mice. Put plainly: PAM neuroprotection in α7 nAChR knockout iTat mice. Conditions: mouse, in vivo. From the text: (§1) Doxycycline (Dox)-inducible and astrocyte-specific HIV-1 Tat-transgenic mice (iTat) were generated as previously described.^38 Wild-type (Wt, C57BL/6) and α7 nAChR knockout mice (α7^−/−, B6.129S7-Chrna^7tm1Ba/J) were purchased from the Jackson Laboratory (Bar Harbor, ME). All the animal procedures were approved by the Institutional Animal Care and Use Committee. Mice were housed with a 12-hour light and 12-hour dark photoperiod and provided water and food ad libitum. α7^−/− iTat mice were generated by cross breeding iTat mice with α7^−/− mice. α7^−/− genotyping was slightly modified with the JumpStart™ Taq DNA Polymerase-based PCR (JumpStart™ Taq DNA Polymerase, Sigma, catalog #D9307). […] Mice of 10-14 weeks old with body weights of 20-35 grams were fed with Dox-containing diet (0.625 g/kg, Envigo, catalog #TD.01306) as stated.
Open Field Test (OPT) and Morris Water Maze (MWZ) were performed sequentially using a computerized video tracking system (Anymaze, Stoelting) to determine the spontaneous locomotor activity and spatial learning and memory, respectively. For OPT, each mouse was allowed to move freely around a clear acrylic chamber (40.5×40.5×30.5 cm) for 10 minutes. Travel distance and maximum speed was determined by the AnyMaze software. […]

The subject of assay [1] is iTat mice. Put plainly: Open Field Test (OPT), locomotor activity. In kind it is in vivo, mouse. Conditions: PAM 15 mg/kg/day s.c. vs DMSO.
Text: as §1
Open Field Test (OPT) and Morris Water Maze (MWZ) were performed sequentially using a computerized video tracking system (Anymaze, Stoelting) to determine the spontaneous locomotor activity and spatial learning and memory, respectively. For OPT, each mouse was allowed to move freely around a clear acrylic chamber (40.5×40.5×30.5 cm) for 10 minutes. Travel distance and maximum speed was determined by the AnyMaze software. For MWZ, a circle pool (1.2 m diameter) surrounded with a curtain was divided into four equal quadrants, and four signs with different shape were fixed onto the middle of each quadrant wall above the opaque water (24±1° C.). A hidden platform (1.5 cm below water surface) was put into a certain quadrant. Two stages consisting of 5-day training and probe test were carried out. In the training stage, four trials with a 15-20 minute interval were conducted in the every-day training, and for each trial mice were allowed to freely seek the platform within 90 seconds right after they were randomly put into one quadrant facing to the pool wall. If the mice found the platform within 90 seconds, 10 seconds would be added to allow them staying on the platform for memorizing, however, if failed, they would be directed toward the platform and allowed to stay on it for 15 seconds. Mice that were immobile or floating and unable to find the platform during the training stages were excluded from the experiments. Probe test was carried out on the next day following the 5-day training stage with a 60 seconds trial, and the platform was removed to prevent the mice from climbing onto it during the testing. One day after the behavioral tests, mice were euthanized and the brains were harvested.
To determine if α7 nAChR is involved in HAND, iTat mice were fed with Dox-containing food pellets for 7 days, injected s.c. with a well-studied and highly specific positive allosteric modulator (PAM) PNU-120596 of α7 nAChR^73,74 […], and then subjected to open field test (OPT) for locomotor activity on day 14, and Morris Water Maze test (MWZ) for learning and spatial memory on day 15-20, and euthanized to harvest tissues on day 21 (FIG. 1A). Dox-containing food pellet feeding and PAM injection continued during the next 7 days of behavioral tests. To minimize the effects of injection on behavioral tests, PAM was injected 5 hours after each behavioral test.

Assay [2] relates to iTat mice. Put plainly: Western blotting of SYP, PSD-95, GFAP, Iba-1 in cortex and hippocampus. In kind it is in vivo, mouse.
Text: as §1
A RIPA buffer (50 mM Tris.HCl, pH 8.0, 280 mM NaCl, 0.5% NP-40, 1% C24H39NaO4, 0.2 mM EDTA, 2 mM EGTA and 10% glycerol) supplemented with protease inhibitors (Millipore-Sigma, catalog #S8830) and phosphatase inhibitors (Millipore-Sigma, catalog #4906845001) was used to lyse the brain tissues and cultured cells with brief sonication on ice. Protein concentrations of the lysates were determined using a Bio-Rad DC protein assay kit (Bio-Rad, catalog #5000111). Lysates were denatured in the SDS-PAGE loading buffer at 100° C. for 10 min, then electrophoretically separated by 8-15% SDS-PAGE, blotted onto 0.45 μm polyvinylidene fluoride membrane (GE Healthcare Life Sciences, catalog #10600023), and probed using appropriate antibodies against PSD-95 (Abcam, catalog #ab18258, and 1:2000 dilution), SYP (Abcam, catalog #ab8049, and 1:1000 dilution), Iba-1 (Wako, catalog #016-20001, and 1:500 dilution) and GFAP (DAKO, catalog #z330s, and 1:2000 dilution), p-p38 (Santa Cruz, catalog #sc-166182, and 1:1000 dilution), p38 (Santa cruz, catalog #sc-535, and 1:1000 dilution), p-JNK (Santa cruz, catalog #sc-6254, and 1:1000 dilution), JNK (Santa cruz, catalog #sc-571, and 1:1000 dilution), p-ERK (Santa cruz, catalog #sc-7383, and 1:1000 dilution), and ERK (Santa cruz, catalog #sc-514302, and 1:1000 dilution), α7 nAChR (Alomone, catalog #ANC-007, and 1:1000 dilution) and β-actin (Sigma-Aldrich, catalog #A1978, and 1:2000 dilution). A Bio-Rad ChemicDoc imaging system (Bio-Rad) and Image J were used for image capturing and analysis, respectively. […]
For orientation: In western blotting, separated proteins are transferred to a membrane and probed.

Where [3] appears, read: CORT, PAM 15 mg/kg/day s.c. vs DMSO.

For `COc1cc(OC)c(NC(=O)Nc2cc(C)on2)cc1Cl` [PAM, 1-(5-chloro-2,4-dimethoxy-phenyl)-3-(5-methyl-isoxazol-3-yl)-urea], in the assay on α7−/−iTat mice, the “Neuroprotective effects against locomotor, learning and memory deficits” value is on record as “abolished”. Besides, the OPT maximum speed entry in the assay with iTat mice [1] (Wt and iTat mice) is reported as “increases of the maximum speed of male Wt mice but not other mice”. In addition, the “OPT total travel distance” value in the assay on iTat mice [1] (Wt mice) is on record as “some improvement of the travel distance of Wt mice”. The “OPT total travel distance” value in the assay with iTat mice [1] (iTat mice) is “improvement of the travel distance of iTat mice”. In the assay with iTat mice [2] (setting [3]), the GFAP expression entry was “completely reversed the increases; also recorded: decreased GFAP in iTat mice”; the Iba-1 expression entry is “decreased Iba-1 in both Wt and iTat mice”; the PSD-95 expression entry was “significant increases of PSD-95 in Wt mice and even more in iTat mice”; the SYP expression result is “no changes”. Further, in the assay with iTat mice [2] (HIP, DMSO- vs PAM-treated mice), the “SYP and GFAP expression” value was “no differences of SYP and GFAP”. The PSD-95 expression result in the assay with iTat mice [2] (HIP, PAM 15 mg/kg/day s.c. vs DMSO) is “increased PSD-95 in both Wt and iTat mice”.
